{
  "source": "paper PMC9406199",
  "about": "“Conformational Plasticity of Centrin 1 from Toxoplasma gondii in Binding to the Centrosomal Protein SFI1” (Biomolecules, 2022)",
  "key": {"[1]": {"molecular_target": "T1, TgCEN1 (recombinant, lacking the first 21 residues) (Toxoplasma gondii, UniProt A0A125YHX7)", "T1 construct": "TgCEN1 (lacking the first 21 residues) and its N-terminal (N-TgCEN1, 22–94 aa) and C-terminal (C-TgCEN1, 95–169 aa) domains; made in house", "T1 sequence (A0A125YHX7 22-169)": "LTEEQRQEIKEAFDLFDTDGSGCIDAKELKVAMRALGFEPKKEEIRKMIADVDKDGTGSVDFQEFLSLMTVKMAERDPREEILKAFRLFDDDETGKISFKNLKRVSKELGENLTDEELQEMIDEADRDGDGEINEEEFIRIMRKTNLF", "experiment": "ITC titration of TgSFI1 peptides into TgCEN1", "format": "binding", "conditions": "for TΔS: T 298 K", "procedure": "(§1) The recombinant TgCEN1 (lacking the first 21 residues) and its N-terminal (N-TgCEN1, 22–94 aa) and C-terminal (C-TgCEN1, 95–169 aa) domains were purified as previously described. The TgSFI1 peptides were synthesized by GenScript U.S.A. Inc. (Piscataway, NJ, USA). The concentration of each peptide was determined using their predicted molar extinction coefficient at 280 nm.\n(§2) Isothermal titration calorimetry (ITC) experiments were performed on a MicroCal PEAQ-ITC instrument (Malvern Ltd., Malvern, UK) at 25 °C. Protein samples and peptides were solubilized in the same buffer containing 50 mM Tris–HCl, 150 mM KCl pH 7.5 and 5 mM CaCl2 or 5 mM EGTA. All the samples were filtered and degassed before use, and the pH was carefully determined to exclude any possible pH-related effect on ITC experiments.\n(§3) A typical ITC experiment was performed by titrating 200 μL of a 30–50 μM protein solution with a 1 or 1.5 μL injection of 0.3–0.5 mM peptide (total injections 39 or 26, respectively) with an initial delay of 120 s and keeping a time gap of 120 s between injections. A reference injection of peptide into buffer without centrin was performed and subtracted from each experiment. The resulting curves were fitted to calculate apparent dissociation constants Kd, enthalpy changes (ΔH), and the apparent entropy change (ΔS) using the software MicroCal ITC Origin 7 Analysis Software (MicroCal, Malvern Ltd., Malvern, UK). All measurements were repeated in triplicate using at least two different protein preparations and the error was calculated as the mean standard error of the three measurements."}, "[2]": {"molecular_target": "T2, N-TgCEN1 (N-terminal domain, 22–94 aa) (Toxoplasma gondii, UniProt A0A125YHX7)", "T2 construct": "N-terminal (N-TgCEN1, 22–94 aa); made in house", "T2 sequence (A0A125YHX7 22-94)": "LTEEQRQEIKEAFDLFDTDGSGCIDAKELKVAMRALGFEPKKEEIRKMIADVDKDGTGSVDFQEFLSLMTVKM", "experiment": "ITC titration of TgSFI1 peptides into N-TgCEN1", "format": "binding", "conditions": "SEM", "procedure": "as §1, §2, §3"}, "[3]": {"molecular_target": "T3, C-TgCEN1 (C-terminal domain, 95–169 aa) (Toxoplasma gondii, UniProt A0A125YHX7)", "T3 construct": "C-terminal (C-TgCEN1, 95–169 aa); made in house", "T3 sequence (A0A125YHX7 95-169)": "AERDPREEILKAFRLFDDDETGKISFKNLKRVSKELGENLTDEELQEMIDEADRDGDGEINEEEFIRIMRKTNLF", "experiment": "ITC titration of TgSFI1 peptides into C-TgCEN1", "format": "binding", "conditions": "SEM; for n (stoichiometry of binding) / ΔH / Kd: 25 °C; for n (stoichiometry of binding) / Kd: 50 mM Tris-HCl; for TΔS: T 298 K", "procedure": "as §1, §2, §3"}, "[4]": {"molecular_target": "TgSFI1 R16 peptide R16 (Toxoplasma gondii) (UniProt S8F258)", "sequence (S8F258 whole entry)": "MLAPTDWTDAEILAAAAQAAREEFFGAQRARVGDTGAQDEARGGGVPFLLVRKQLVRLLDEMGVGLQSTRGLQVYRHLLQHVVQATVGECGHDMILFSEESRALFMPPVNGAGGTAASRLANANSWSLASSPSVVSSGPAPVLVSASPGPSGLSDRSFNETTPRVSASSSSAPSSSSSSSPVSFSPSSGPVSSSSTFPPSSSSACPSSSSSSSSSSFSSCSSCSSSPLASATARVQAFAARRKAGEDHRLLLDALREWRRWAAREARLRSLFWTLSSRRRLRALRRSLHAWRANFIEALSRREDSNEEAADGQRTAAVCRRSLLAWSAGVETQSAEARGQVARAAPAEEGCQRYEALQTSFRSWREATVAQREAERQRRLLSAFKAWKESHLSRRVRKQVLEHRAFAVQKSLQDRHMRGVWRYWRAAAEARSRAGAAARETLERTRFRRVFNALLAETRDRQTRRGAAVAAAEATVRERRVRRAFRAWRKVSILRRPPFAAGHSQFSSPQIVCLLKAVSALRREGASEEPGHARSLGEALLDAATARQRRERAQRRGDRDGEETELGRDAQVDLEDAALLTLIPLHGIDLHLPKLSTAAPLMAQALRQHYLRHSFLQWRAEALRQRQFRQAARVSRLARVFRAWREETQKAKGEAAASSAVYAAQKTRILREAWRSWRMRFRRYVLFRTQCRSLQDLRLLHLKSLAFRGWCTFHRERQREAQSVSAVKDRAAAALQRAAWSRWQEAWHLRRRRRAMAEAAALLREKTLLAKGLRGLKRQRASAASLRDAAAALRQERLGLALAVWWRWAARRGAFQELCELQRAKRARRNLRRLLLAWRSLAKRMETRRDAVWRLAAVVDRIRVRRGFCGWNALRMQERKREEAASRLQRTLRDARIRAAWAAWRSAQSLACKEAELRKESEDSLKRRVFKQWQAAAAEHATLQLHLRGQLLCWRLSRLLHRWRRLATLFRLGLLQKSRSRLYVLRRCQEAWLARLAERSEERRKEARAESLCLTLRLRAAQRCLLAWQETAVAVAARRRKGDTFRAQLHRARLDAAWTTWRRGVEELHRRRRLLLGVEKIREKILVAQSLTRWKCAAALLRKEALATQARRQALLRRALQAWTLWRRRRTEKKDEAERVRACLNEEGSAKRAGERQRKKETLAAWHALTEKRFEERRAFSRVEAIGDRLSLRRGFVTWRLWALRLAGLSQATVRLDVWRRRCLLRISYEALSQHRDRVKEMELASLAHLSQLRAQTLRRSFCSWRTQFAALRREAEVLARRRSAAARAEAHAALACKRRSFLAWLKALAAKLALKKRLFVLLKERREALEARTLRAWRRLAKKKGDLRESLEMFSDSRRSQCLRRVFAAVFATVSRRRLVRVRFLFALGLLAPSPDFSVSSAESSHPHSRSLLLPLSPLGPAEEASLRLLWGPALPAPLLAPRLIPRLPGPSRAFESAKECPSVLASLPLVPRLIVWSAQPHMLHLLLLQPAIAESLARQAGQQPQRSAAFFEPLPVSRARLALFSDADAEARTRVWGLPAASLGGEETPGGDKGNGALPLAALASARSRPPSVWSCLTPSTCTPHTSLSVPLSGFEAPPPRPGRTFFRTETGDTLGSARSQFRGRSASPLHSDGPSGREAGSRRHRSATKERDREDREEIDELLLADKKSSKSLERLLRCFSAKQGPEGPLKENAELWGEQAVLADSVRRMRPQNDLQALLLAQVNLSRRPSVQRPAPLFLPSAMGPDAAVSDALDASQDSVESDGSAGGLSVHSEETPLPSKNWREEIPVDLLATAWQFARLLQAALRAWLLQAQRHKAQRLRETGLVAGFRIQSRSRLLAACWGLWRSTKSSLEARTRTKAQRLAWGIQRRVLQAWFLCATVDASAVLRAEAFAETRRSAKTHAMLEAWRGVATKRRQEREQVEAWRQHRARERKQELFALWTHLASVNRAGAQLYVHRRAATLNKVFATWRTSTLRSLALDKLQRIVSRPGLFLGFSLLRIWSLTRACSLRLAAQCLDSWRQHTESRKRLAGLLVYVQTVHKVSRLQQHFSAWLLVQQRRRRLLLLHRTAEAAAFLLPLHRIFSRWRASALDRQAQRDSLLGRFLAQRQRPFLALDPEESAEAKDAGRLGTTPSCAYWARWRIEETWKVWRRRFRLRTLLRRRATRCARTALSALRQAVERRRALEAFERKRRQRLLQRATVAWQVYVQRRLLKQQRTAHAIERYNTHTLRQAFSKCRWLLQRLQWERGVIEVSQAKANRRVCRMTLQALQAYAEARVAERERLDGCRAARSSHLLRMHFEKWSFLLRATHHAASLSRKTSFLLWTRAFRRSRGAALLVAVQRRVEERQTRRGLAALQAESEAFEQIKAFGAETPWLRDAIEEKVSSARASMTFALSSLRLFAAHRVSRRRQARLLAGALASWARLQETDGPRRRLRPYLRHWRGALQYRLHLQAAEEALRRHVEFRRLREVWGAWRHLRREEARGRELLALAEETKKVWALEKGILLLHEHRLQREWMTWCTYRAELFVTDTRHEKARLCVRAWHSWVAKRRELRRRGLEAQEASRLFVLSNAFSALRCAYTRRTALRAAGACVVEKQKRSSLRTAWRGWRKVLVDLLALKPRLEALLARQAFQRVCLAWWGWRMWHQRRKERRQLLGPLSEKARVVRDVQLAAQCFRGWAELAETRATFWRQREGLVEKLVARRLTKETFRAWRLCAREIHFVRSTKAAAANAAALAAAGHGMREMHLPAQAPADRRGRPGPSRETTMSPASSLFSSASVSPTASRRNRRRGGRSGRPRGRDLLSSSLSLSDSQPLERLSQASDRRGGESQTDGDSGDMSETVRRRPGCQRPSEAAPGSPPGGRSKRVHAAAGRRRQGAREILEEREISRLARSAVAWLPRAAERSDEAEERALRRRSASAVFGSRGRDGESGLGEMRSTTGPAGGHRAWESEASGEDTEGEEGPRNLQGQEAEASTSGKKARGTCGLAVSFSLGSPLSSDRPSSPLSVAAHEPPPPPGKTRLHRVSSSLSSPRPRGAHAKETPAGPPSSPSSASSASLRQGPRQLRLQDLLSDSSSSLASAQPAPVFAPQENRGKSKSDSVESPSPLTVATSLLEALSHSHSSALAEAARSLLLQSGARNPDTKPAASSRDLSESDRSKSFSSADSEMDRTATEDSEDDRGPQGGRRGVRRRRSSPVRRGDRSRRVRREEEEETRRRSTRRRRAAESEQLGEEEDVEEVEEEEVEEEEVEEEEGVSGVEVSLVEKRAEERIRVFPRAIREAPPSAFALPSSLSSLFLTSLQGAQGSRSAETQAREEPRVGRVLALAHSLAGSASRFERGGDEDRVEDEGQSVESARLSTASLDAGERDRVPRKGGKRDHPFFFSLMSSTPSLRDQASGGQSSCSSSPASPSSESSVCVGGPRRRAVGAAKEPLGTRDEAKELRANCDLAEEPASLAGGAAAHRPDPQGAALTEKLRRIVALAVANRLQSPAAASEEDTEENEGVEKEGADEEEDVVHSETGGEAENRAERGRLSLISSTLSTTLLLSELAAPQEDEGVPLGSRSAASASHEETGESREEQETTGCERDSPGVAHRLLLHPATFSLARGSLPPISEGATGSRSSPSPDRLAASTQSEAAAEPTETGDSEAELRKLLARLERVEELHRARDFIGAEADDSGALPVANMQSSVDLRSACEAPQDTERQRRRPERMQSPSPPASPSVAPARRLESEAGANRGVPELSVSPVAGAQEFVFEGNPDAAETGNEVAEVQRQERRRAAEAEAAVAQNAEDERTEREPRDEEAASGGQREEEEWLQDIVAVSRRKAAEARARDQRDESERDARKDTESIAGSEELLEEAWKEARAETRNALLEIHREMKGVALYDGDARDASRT", "experiment": "ITC"}, "[5]": {"conditions": "25 °C, 50 mM Tris-HCl, 150 mM KCl pH 7.5, 5 mM CaCl2, first site (n1) of two-step binding, mean ± SE of triplicate, SEM"}, "[6]": {"conditions": "25 °C, 50 mM Tris-HCl, 150 mM KCl pH 7.5, 5 mM CaCl2, second site (n2) of two-step binding, mean ± SE of triplicate, SEM"}, "[7]": {"conditions": "150 mM KCl pH 7.5, 5 mM CaCl2, mean ± SE of triplicate"}, "[8]": {"conditions": "pH 7.5, 5 mM CaCl2, mean ± SE of triplicate"}, "[9]": {"conditions": "pH 7.5, 5 mM EGTA, mean ± SE of triplicate"}, "[10]": {"conditions": "25 °C, 50 mM Tris-HCl, 150 mM KCl pH 7.5, 5 mM EGTA, mean ± SE of triplicate, dash = no binding observed, SEM"}, "[11]": {"conditions": "150 mM KCl pH 7.5, 5 mM EGTA, mean ± SE of triplicate, dash = no binding observed"}, "[12]": {"conditions": "25 °C, 50 mM Tris-HCl, 150 mM KCl pH 7.5, 5 mM CaCl2, single binding site, mean ± SE of triplicate, SEM"}, "[13]": {"conditions": "Ca2+-bound TgCEN1, single exothermic event, order of magnitude in text"}},
  "note": "Where no end group is shown, it is not given here.",
  "data": [
    {"substance": "LQRAKRARRNLRRLLLAWRS [R10]", "values": [
      {"measurement": "n (stoichiometry of binding), n1", "setting": "[1]; [5]", "value": "n1 = 0.7 ± 0.1"},
      {"measurement": "n (stoichiometry of binding), n2", "setting": "[1]; [6]", "value": "n2 = 0.9 ± 0.1"},
      {"measurement": "n (stoichiometry of binding)", "setting": "[1]; 25 °C, 50 mM Tris-HCl, 150 mM KCl pH 7.5, 5 mM EGTA, mean ± SE of triplicate, SEM", "value": "0.8 ± 0.1"},
      {"measurement": "ΔH", "setting": "[1]; 25 °C, pH 7.5, 5 mM CaCl2, first site (n1), mean ± SE of triplicate, SEM", "value": "-19.1 ± 0.4", "unit": "kcal/mol"},
      {"measurement": "ΔH", "setting": "[1]; 25 °C, pH 7.5, 5 mM CaCl2, second site (n2), mean ± SE of triplicate, SEM", "value": "-12.1 ± 0.3", "unit": "kcal/mol"},
      {"measurement": "ΔH", "setting": "[1]; 25 °C, pH 7.5, 5 mM EGTA, mean ± SE of triplicate, SEM", "value": "-24.7 ± 0.4", "unit": "kcal/mol"},
      {"measurement": "TΔS", "setting": "[1]; pH 7.5, 5 mM CaCl2, first site (n1), mean ± SE of triplicate, SEM", "value": "-6.3 ± 0.4", "unit": "kcal/mol"},
      {"measurement": "TΔS", "setting": "[1]; pH 7.5, 5 mM CaCl2, second site (n2), mean ± SE of triplicate, SEM", "value": "-4.4 ± 0.3", "unit": "kcal/mol"},
      {"measurement": "TΔS", "setting": "[1]; pH 7.5, 5 mM EGTA, mean ± SE of triplicate, SEM", "value": "-16.4 ± 0.4", "unit": "kcal/mol"},
      {"measurement": "n (stoichiometry of binding)", "setting": "[2]; 25 °C, 50 mM Tris-HCl, 150 mM KCl pH 7.5, 5 mM CaCl2, mean ± SE of triplicate", "value": "0.7 ± 0.1"},
      {"measurement": "ΔH", "setting": "[2]; 25 °C, pH 7.5, 5 mM CaCl2, mean ± SE of triplicate", "value": "-12.6 ± 0.9", "unit": "kcal/mol"},
      {"measurement": "TΔS", "setting": "[2]; T 298 K, pH 7.5, 5 mM CaCl2, mean ± SE of triplicate", "value": "-4.4 ± 1.0", "unit": "kcal/mol"},
      {"measurement": "n (stoichiometry of binding)", "setting": "[3]; [7]", "value": "0.7 ± 0.1"},
      {"measurement": "n (stoichiometry of binding)", "setting": "[3]; 150 mM KCl pH 7.5, 5 mM EGTA, mean ± SE of triplicate", "value": "0.7 ± 0.1"},
      {"measurement": "ΔH", "setting": "[3]; [8]", "value": "-15.8 ± 0.1", "unit": "kcal/mol"},
      {"measurement": "ΔH", "setting": "[3]; [9]", "value": "-19.3 ± 0.1", "unit": "kcal/mol"},
      {"measurement": "TΔS", "setting": "[3]; [8]", "value": "-5.5 ± 0.5", "unit": "kcal/mol"},
      {"measurement": "TΔS", "setting": "[3]; [9]", "value": "-11.5 ± 0.7", "unit": "kcal/mol"}
    ]},
    {"substance": "LATQARRQALLRRALQAWTL [R16]", "values": [
      {"measurement": "Kd", "setting": "[1]; [5]", "value": "9 ± 1", "unit": "nM"},
      {"measurement": "Kd", "setting": "[1]; [6]", "value": "500 ± 100", "unit": "nM"},
      {"measurement": "Kd", "setting": "[1]; [10]", "value": "3400 ± 300", "unit": "nM"},
      {"measurement": "Kd", "setting": "[2]; 25 °C, 50 mM Tris-HCl, 150 mM KCl pH 7.5, 5 mM CaCl2, mean ± SE of triplicate, dash = no binding observed", "value": "400 ± 100", "unit": "nM"},
      {"measurement": "Kd", "setting": "[3]; [7]", "value": "6 ± 1", "unit": "nM"},
      {"measurement": "Kd", "setting": "[3]; [11]", "value": "9100 ± 800", "unit": "nM"}
    ]},
    {"substance": "RVEAIGDRLSLRRGFVTWRL [R17]", "values": [
      {"measurement": "Kd", "setting": "[1]; [12]", "value": "800 ± 200", "unit": "nM"},
      {"measurement": "Kd", "setting": "[3]; [7]", "value": "2700 ± 100", "unit": "nM"}
    ]},
    {"substance": "TgCEN1 (from UniProt A0A125YHX7)", "values": [
      {"measurement": "Kd", "setting": "[4]", "value": 9, "unit": "nM"}
    ]},
    {"substance": "VVEKQKRSSLRTAWRGWR [R31]", "values": [
      {"measurement": "Kd", "setting": "[1]; [12]", "value": "2900 ± 100", "unit": "nM"},
      {"measurement": "Kd", "setting": "[1]; [13]", "value": "~1000", "unit": "nM"},
      {"measurement": "Kd", "setting": "[3]; [7]", "value": "1900 ± 100", "unit": "nM"}
    ]},
    {"substance": "AEATVRERRVRRAFRAWR [R5]", "values": [
      {"measurement": "Kd", "setting": "[1]; [12]", "value": "500 ± 100", "unit": "nM"},
      {"measurement": "Kd", "setting": "[1]; [10]", "value": "36900 ± 6600", "unit": "nM"},
      {"measurement": "Kd", "setting": "[3]; [7]", "value": "900 ± 100", "unit": "nM"},
      {"measurement": "Kd", "setting": "[3]; [11]", "value": "47800 ± 4900", "unit": "nM"}
    ]},
    {"substance": "LQRTLRDARIRAAWAAWR [R12]", "values": [
      {"measurement": "Kd", "setting": "[1]; [12]", "value": "500 ± 100", "unit": "nM"},
      {"measurement": "Kd", "setting": "[1]; [10]", "value": "29800 ± 3400", "unit": "nM"},
      {"measurement": "Kd", "setting": "[3]; [7]", "value": "400 ± 100", "unit": "nM"},
      {"measurement": "Kd", "setting": "[3]; [11]", "value": "69900 ± 7000", "unit": "nM"}
    ]},
    {"substance": "AEAAAFLLPLHRIFSRWR [R24]", "values": [
      {"measurement": "Kd", "setting": "[1]; [12]", "value": "3400 ± 600", "unit": "nM"},
      {"measurement": "Kd", "setting": "[1]; [13]", "value": "~1000", "unit": "nM"},
      {"measurement": "Kd", "setting": "[3]; [7]", "value": "2600 ± 300", "unit": "nM"}
    ]}
  ]
}
